Assay results from paper PMC11576293, “New series of 4,6-diaryl pyrimidines: facile synthesis and antiproliferative activity as dual EGFR/VEGFR-2 inhibitors” (Frontiers in Chemistry, 2024).

Tests used:
Assay in all cases: NCI-60 single-dose screen
Type in all cases: cell-based
MDA-MB-468 = details: Homo sapiens, single dose 10 µM, '-' = no inhibition, read-out: % Growth Inhibition
Method: (§1) The National Cancer Institute’s Developmental Therapeutic Program (www.dtp.nci.nih.gov) has tested compounds 9–29 (except compounds 21 and 22) against 60 cancer cell lines from nine types (leukemia, lung, colon, CNS, melanoma, ovarian, renal, prostate, and breast cancer) at a single dose (10 μM) ([El-Sherief et al., 2018]). […] The most sensitive cells included leukemia (SR, K-562, and MOLT-4), lung (NCI-H522, […], and EKVX), breast (MCF-7 and T-47D), colon (HCT-15 and HT-29), and ovarian (NCI/ADR-RES).
(§2) The National Cancer Institute’s Developmental Therapeutic Program (www.dtp.nci.nih.gov) evaluated compounds 9–29 (excluding 21 and 22) against 60 cancer cell lines from nine categories (leukemia, lung, colon, CNS, melanoma, ovarian, renal, prostate, and breast cancer) at a single dose (10 μM) ([El-Sherief et al., 2018]). See Supplementary Material A1 for more details.

SK-OV-3 = details: Homo sapiens, single dose 10 µM, '-' = no inhibition, read-out: % Growth Inhibition
Method: as §1, §2

SN12C = details: Homo sapiens, single dose 10 µM, '-' = no inhibition, read-out: % Growth Inhibition
Method: as §1, §2

SNB-75 = details: Homo sapiens, single dose 10 µM, '-' = no inhibition, read-out: % Growth Inhibition
Method: as §1, §2

KM12 = details: Homo sapiens, single dose 10 µM, '-' = no inhibition, read-out: % Growth Inhibition
Method: as §1, §2

HL-60(TB) = details: Homo sapiens, single dose 10 µM, '-' = no inhibition, read-out: % Growth Inhibition
Method: as §1, §2

CCRF-CEM = details: Homo sapiens, single dose 10 µM, '-' = no inhibition, read-out: % Growth Inhibition
Method: as §1, §2

SR = details: Homo sapiens, single dose 10 µM, '-' = no inhibition, read-out: % Growth Inhibition
Method: as §1, §2

MALME-3M = details: Homo sapiens, single dose 10 µM, '-' = no inhibition, read-out: % Growth Inhibition
Method: as §1, §2

NCI-H23 = details: Homo sapiens, single dose 10 µM, '-' = no inhibition, read-out: % Growth Inhibition
Method: as §1, §2

NCI-H460 = details: Homo sapiens, single dose 10 µM, '-' = no inhibition, read-out: % Growth Inhibition
Method: as §1, §2

TK-10 = details: Homo sapiens, single dose 10 µM, '-' = no inhibition, read-out: % Growth Inhibition
Method: as §1, §2

DU-145 = details: Homo sapiens, single dose 10 µM, '-' = no inhibition, read-out: % Growth Inhibition
Method: as §1, §2

HCC-2998 = details: Homo sapiens, single dose 10 µM, '-' = no inhibition, read-out: % Growth Inhibition
Method: as §1, §2

SW-620 = details: Homo sapiens, single dose 10 µM, '-' = no inhibition, read-out: % Growth Inhibition
Method: as §1, §2

786-0 = details: Homo sapiens, single dose 10 µM, '-' = no inhibition, read-out: % Growth Inhibition
Method: as §1, §2

A549/ATCC = details: Homo sapiens, single dose 10 µM, '-' = no inhibition, read-out: % Growth Inhibition
Method: as §1, §2

HOP-62 = details: Homo sapiens, single dose 10 µM, '-' = no inhibition, read-out: % Growth Inhibition
Method: as §1, §2

OVCAR-8 = details: Homo sapiens, single dose 10 µM, '-' = no inhibition, read-out: % Growth Inhibition
Method: as §1, §2

HCT-116 = details: Homo sapiens, single dose 10 µM, '-' = no inhibition, read-out: % Growth Inhibition
Method: as §1, §2

SF-268 = details: Homo sapiens, single dose 10 µM, '-' = no inhibition, read-out: % Growth Inhibition
Method: as §1, §2

HT29 = details: Homo sapiens, HT-29, single dose 10 µM, '-' = no inhibition, read-out: % Growth Inhibition
Method: as §1, §2

T-47D = details: Homo sapiens, T47D, single dose 10 µM, '-' = no inhibition, read-out: % Growth Inhibition
Method: as §1, §2

SF-295 = details: Homo sapiens, single dose 10 µM, '-' = no inhibition, read-out: % Growth Inhibition
Method: as §1, §2

ACHN 1 = details: Homo sapiens, single dose 10 µM, '-' = no inhibition, read-out: % Growth Inhibition
Method: as §1, §2

SK-MEL-5 = details: Homo sapiens, single dose 10 µM, '-' = no inhibition, read-out: % Growth Inhibition
Method: as §1, §2

COLO 205 = details: Homo sapiens, single dose 10 µM, '-' = no inhibition, read-out: % Growth Inhibition
Method: as §1, §2

BT-549 = details: Homo sapiens, single dose 10 µM, '-' = no inhibition, read-out: % Growth Inhibition
Method: as §1, §2

SK-MEL-28 = details: Homo sapiens, single dose 10 µM, '-' = no inhibition, read-out: % Growth Inhibition
Method: as §1, §2

HOP-92 = details: Homo sapiens, single dose 10 µM, '-' = no inhibition, read-out: % Growth Inhibition
Method: as §1, §2

OVCAR-4 = details: Homo sapiens, single dose 10 µM, '-' = no inhibition, read-out: % Growth Inhibition
Method: as §1, §2

MCF7 = details: Homo sapiens, single dose 10 µM, '-' = no inhibition, read-out: % Growth Inhibition
Method: as §1, §2

M14 = details: Homo sapiens, single dose 10 µM, '-' = no inhibition, read-out: % Growth Inhibition
Method: as §1, §2

RXF 393 = details: Homo sapiens, single dose 10 µM, '-' = no inhibition, read-out: % Growth Inhibition
Method: as §1, §2

EKVX = details: Homo sapiens, single dose 10 µM, '-' = no inhibition, read-out: % Growth Inhibition
Method: as §1, §2

U251 = details: Homo sapiens, U-251, single dose 10 µM, '-' = no inhibition, read-out: % Growth Inhibition
Method: as §1, §2

IGROV1 = details: Homo sapiens, IGROV-1, single dose 10 µM, '-' = no inhibition, read-out: % Growth Inhibition
Method: as §1, §2

UACC-257 = details: Homo sapiens, single dose 10 µM, '-' = no inhibition, read-out: % Growth Inhibition
Method: as §1, §2

SF-539 = details: Homo sapiens, single dose 10 µM, '-' = no inhibition, read-out: % Growth Inhibition
Method: as §1, §2

RPMI-8226 = details: Homo sapiens, single dose 10 µM, '-' = no inhibition, read-out: % Growth Inhibition
Method: as §1, §2

PC-3 = details: Homo sapiens, single dose 10 µM, '-' = no inhibition, read-out: % Growth Inhibition
Method: as §1, §2

SK-MEL-2 = details: Homo sapiens, single dose 10 µM, '-' = no inhibition, read-out: % Growth Inhibition
Method: as §1, §2

HS 578T = details: Homo sapiens, single dose 10 µM, '-' = no inhibition, read-out: % Growth Inhibition
Method: as §1, §2

A498 = details: Homo sapiens, single dose 10 µM, '-' = no inhibition, read-out: % Growth Inhibition
Method: as §1, §2

K-562 = details: Homo sapiens, K562, single dose 10 µM, '-' = no inhibition, read-out: % Growth Inhibition
Method: as §1, §2

MDA-MB-435 = details: Homo sapiens, single dose 10 µM, '-' = no inhibition, read-out: % Growth Inhibition
Method: as §1, §2

OVCAR-5 = details: Homo sapiens, single dose 10 µM, '-' = no inhibition, read-out: % Growth Inhibition
Method: as §1, §2

NCI-H322M = details: Homo sapiens, single dose 10 µM, '-' = no inhibition, read-out: % Growth Inhibition
Method: as §1, §2

In the case of `CCSc1nc(-c2ccc(Cl)cc2)cc(-c2ccc(OC)cc2)n1` [Compound 10, 4-(4-Chlorophenyl)-2-(ethylthio)-6-(4-methoxyphenyl)pyrimidine], the inhibition at 10 µM (MDA-MB-468) is reported as < 0%, the inhibition at 10 µM (SK-OV-3) is reported as < 0% and the inhibition at 10 µM (SN12C) is reported as 0.46%. For the same compound, the inhibition at 10 µM (SNB-75) was 3%, the inhibition at 10 µM (KM12) was 1.5% and the inhibition at 10 µM (HL-60(TB)) was 6.15%. For the same compound, the inhibition at 10 µM (CCRF-CEM) was < 0%, the inhibition at 10 µM (SR) was 19.4% and the inhibition at 10 µM (MALME-3M) was < 0%. For the same compound, the inhibition at 10 µM (NCI-H23) was 0.32%, the inhibition at 10 µM (NCI-H460) was < 0% and the inhibition at 10 µM (TK-10) was 0.94%. For the same compound, the inhibition at 10 µM (DU-145) was < 0%, the inhibition at 10 µM (HCC-2998) was < 0% and the inhibition at 10 µM (SW-620) was < 0%. The inhibition at 10 µM (786-0) was 3.07%, the inhibition at 10 µM (A549/ATCC) was 11.2% and the inhibition at 10 µM (HOP-62) was < 0%. For the same compound, the inhibition at 10 µM (OVCAR-8) was < 0%, the inhibition at 10 µM (HCT-116) was 4.3% and the inhibition at 10 µM (SF-268) was < 0%. For the same compound, the inhibition at 10 µM (HT29) was 9.13%, the inhibition at 10 µM (T-47D) was 18.6% and the inhibition at 10 µM (SF-295) was 2.91%. The inhibition at 10 µM (ACHN 1) was 2.57%, the inhibition at 10 µM (SK-MEL-5) was 3.36% and the inhibition at 10 µM (COLO 205) was < 0%. For the same compound, the inhibition at 10 µM (BT-549) was < 0%, the inhibition at 10 µM (SK-MEL-28) was < 0% and the inhibition at 10 µM (HOP-92) was < 0%. The inhibition at 10 µM (OVCAR-4) was 12.9%, the inhibition at 10 µM (MCF7) was 25.5% and the inhibition at 10 µM (M14) was < 0%. The inhibition at 10 µM (RXF 393) was < 0%, the inhibition at 10 µM (EKVX) was 7.83% and the inhibition at 10 µM (U251) was 4.88%. The inhibition at 10 µM (IGROV1) was < 0%, the inhibition at 10 µM (UACC-257) was < 0% and the inhibition at 10 µM (SF-539) was < 0%. For the same compound, the inhibition at 10 µM (RPMI-8226) was 6.56%, the inhibition at 10 µM (PC-3) was < 0% and the inhibition at 10 µM (SK-MEL-2) was 6.03%. For the same compound, the inhibition at 10 µM (HS 578T) was 2.58%, the inhibition at 10 µM (A498) was 3.38% and the inhibition at 10 µM (K-562) was 11.5%. For the same compound, the inhibition at 10 µM (MDA-MB-435) was 8.38%, the inhibition at 10 µM (OVCAR-5) was < 0% and the inhibition at 10 µM (NCI-H322M) was < 0%.
